Data: patent publication US20240082293A1, “A VAGINAL CONTRACEPTIVE COMPOSITION FOR REINFORCEMENT OF MUCUS BARRIER PROPERTIES” (CIRQLE BIOMEDICAL CONTRACEPTION ApS, priority 2019, published 2024)

Tested on: human sperm penetration through human ovulatory cervical mucus
Assay: Sperm penetration assay through ovulatory cervical mucus in capillaries (phase contrast microscopy)
Format: cell-based
Details: for sperm penetration through mucus treated with poly-L-lysine (barrier reinforcing effect): PLL 5 mg/mL in 32.5 mM lactic acid solution, 30 minutes after exposure to undiluted sperm
Protocol: Semen samples of patients and volunteers collected at the Andrology, Sexual Medicine, Transmedicine, clinic (ANOVA, Karolinska University Hospital, Sweden) were run through standard semen kinematic analyses and sperm penetration assays no later than 3 h after collection. Data were obtained for the collection time, abstinence time, and semen volume. Semen was gently liquefied for 30 min on a rocker in an incubation chamber heated up to 37° C., after complete collection of ejaculates by masturbation. The viscosity of semen was determined visually and by pipetting. Semen was microscopically analysed by pipetting 6 μl of specimen in pre-warmed Leja® (Netherland) counting chamber slides (20 micron). Subsequently, specimens were assessed via clinical ECLIPSE 50i microscope (Nikon Instruments, Japan) equipped with stage heater MS 100 (37° C., Linkam Scientific Instruments, UK), 10× objective (Ph1) and 0.5× charge coupled device camera UI-1540LE-M-HQ (IDS Imaging Development Systems GmbH, Germany) with total magnification of 5×. The system was connected to the Computer Aided Semen Analysis software QualiSperm (v3.0.9.486, AKYmed, Switzerland). Beside the sperm concentration [106/m1], the progressive motility [%], motility [%], immotility [%], velocity [μm/s], sperm size [μm2], and number of cells were measured. Semen samples meeting the following criteria were included in this study: volume of >1.5 ml, concentration of >15×10^6/mland >40% progressive motility. These criteria reflect reference limits of the World Health Organization (WHO) (“WHO Laboratory Manual for the Examination and Processing of Human Semen” 2010) and values for normal spermatozoa as stated in Bjorndahl (Lars Bjorndahl. 2011. “What Is Normal Semen Quality? On the Use and Abuse of Reference Limits for the Interpretation of Semen Analysis Results.” Human Fertility 14 (3): 179-86). In each run, ten values were generated by assessing five fields in two chambers.
Ovulatory cervical mucus (CVM) (the CVM with highest penetrability) was collected from healthy donors at the Karolinska University Hospital. […]

| Substance | sperm penetration through mucus treated with poly-L-lysine (barrier reinforcing effect) | point at which no sperm is seen (distance into the mucus) (sperm numbers assessed 30 minutes after exposure to undiluted sperm, polymer in lactic acid solution) |
| --- | --- | --- |
| poly-L-lysine [66 KDa PLL] | able to prevent the entrance of the sperm | around 3 cm |
| poly-L-lysine [low molecular weight PLL] | did not have any effect |  |
